{
  "source": "patent US10196378B2",
  "about": "“Inhibitors of BCR-ABL mutants and use thereof” (THE REGENTS OF THE UNIVERSITY OF MICHIGAN, priority 2016, dated 2019)",
  "key": {"[1]": {"tested_on": "parental IL-3 dependent Ba/F3 cells", "experiment": "cells", "details": "Mus musculus, BaF3, read-out: GI50, Ba/F3 parental"}, "[2]": {"details": "phase I trial, cited from earlier work"}, "VEGFR3 (FLT4)": {"target": "VEGFR3 (FLT4) (Homo sapiens (Human), UniProt P35916)", "experiment": "NanoSyn single-concentration kinase inhibition", "assay_type": "biochemical", "details": "read-out: % inhibition at 100 nM, VEGFR3 (FLT4)"}, "PDGFRα": {"target": "PDGFRα (Homo sapiens (Human), UniProt P16234)", "experiment": "NanoSyn single-concentration kinase inhibition", "assay_type": "biochemical", "details": "read-out: % inhibition at 100 nM, PDGFRα"}, "C-Raf": {"target": "C-Raf (Homo sapiens (Human), UniProt P04049)", "experiment": "NanoSyn single-concentration kinase inhibition", "assay_type": "biochemical", "details": "read-out: % inhibition at 100 nM, C-Raf"}, "FLT3": {"target": "FLT3 (Homo sapiens (Human), UniProt P36888)", "experiment": "NanoSyn single-concentration kinase inhibition", "assay_type": "biochemical", "details": "read-out: % inhibition at 100 nM, FLT3"}, "Lck": {"target": "Lck (Homo sapiens (Human), UniProt P06239)", "experiment": "NanoSyn single-concentration kinase inhibition", "assay_type": "biochemical", "details": "read-out: % inhibition at 100 nM, Lck"}, "PDGFRβ": {"target": "PDGFRβ (Homo sapiens (Human), UniProt P09619)", "experiment": "NanoSyn single-concentration kinase inhibition", "assay_type": "biochemical", "details": "read-out: % inhibition at 100 nM, PDGFRβ"}, "MAP4K5": {"target": "MAP4K5 (Homo sapiens (Human), UniProt Q9Y4K4)", "experiment": "NanoSyn single-concentration kinase inhibition", "assay_type": "biochemical", "details": "read-out: % inhibition at 100 nM, MAP4K5"}, "Lyn-A": {"target": "Lyn-A (Homo sapiens (Human), UniProt P07948)", "experiment": "NanoSyn single-concentration kinase inhibition", "assay_type": "biochemical", "details": "read-out: % inhibition at 100 nM, Lyn-A"}, "VEGFR2 (KDR) [3]": {"target": "T1, VEGFR2 (KDR) (Homo sapiens (Human), UniProt P35968)", "T1 sequence (P35968 20-1356, species assumed)": "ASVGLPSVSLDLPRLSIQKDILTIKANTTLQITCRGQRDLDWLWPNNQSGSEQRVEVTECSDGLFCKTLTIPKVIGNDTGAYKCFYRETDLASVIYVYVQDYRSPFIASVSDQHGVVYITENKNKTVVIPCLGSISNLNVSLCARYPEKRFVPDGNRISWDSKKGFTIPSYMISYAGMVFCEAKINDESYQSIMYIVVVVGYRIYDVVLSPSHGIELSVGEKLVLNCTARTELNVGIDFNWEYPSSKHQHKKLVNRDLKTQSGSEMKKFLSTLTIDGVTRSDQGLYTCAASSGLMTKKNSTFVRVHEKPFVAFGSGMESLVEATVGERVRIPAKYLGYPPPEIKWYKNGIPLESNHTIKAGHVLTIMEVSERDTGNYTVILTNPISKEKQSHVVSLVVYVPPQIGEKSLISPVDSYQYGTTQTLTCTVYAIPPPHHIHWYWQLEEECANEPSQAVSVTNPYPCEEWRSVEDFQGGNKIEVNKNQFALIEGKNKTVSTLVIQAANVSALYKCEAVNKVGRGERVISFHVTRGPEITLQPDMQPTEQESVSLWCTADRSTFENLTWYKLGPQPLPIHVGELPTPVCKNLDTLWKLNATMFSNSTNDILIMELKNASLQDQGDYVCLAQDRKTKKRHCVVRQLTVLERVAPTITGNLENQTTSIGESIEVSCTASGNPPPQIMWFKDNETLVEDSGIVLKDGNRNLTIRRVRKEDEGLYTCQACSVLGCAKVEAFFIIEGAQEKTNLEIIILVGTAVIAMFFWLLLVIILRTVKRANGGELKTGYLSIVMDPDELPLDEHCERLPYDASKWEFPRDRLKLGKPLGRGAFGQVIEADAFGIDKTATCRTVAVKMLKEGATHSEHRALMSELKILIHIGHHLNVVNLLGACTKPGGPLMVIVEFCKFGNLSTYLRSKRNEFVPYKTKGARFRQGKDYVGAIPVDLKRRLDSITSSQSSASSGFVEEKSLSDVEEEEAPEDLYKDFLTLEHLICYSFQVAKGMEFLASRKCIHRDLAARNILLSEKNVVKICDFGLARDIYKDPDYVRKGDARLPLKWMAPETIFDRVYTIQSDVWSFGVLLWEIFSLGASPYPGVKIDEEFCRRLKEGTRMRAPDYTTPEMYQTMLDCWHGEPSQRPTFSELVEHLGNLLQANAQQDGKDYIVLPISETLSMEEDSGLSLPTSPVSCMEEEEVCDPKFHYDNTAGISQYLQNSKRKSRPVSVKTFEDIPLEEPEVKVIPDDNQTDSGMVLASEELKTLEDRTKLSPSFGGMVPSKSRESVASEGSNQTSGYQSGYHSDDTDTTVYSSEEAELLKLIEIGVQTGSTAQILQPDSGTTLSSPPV"}, "BV-173R": {"tested_on": "BV-173R", "experiment": "Growth inhibition (GI50) in BV-173R CML cells", "assay_type": "cell-based", "details": "read-out: GI50, BV-173R"}, "Tie2": {"target": "Tie2 (Homo sapiens (Human), UniProt Q02763)", "experiment": "NanoSyn single-concentration kinase inhibition", "assay_type": "biochemical", "details": "read-out: % inhibition at 100 nM, Tie2"}, "Csk": {"target": "Csk (Homo sapiens (Human), UniProt P41240)", "sequence (P41240 whole entry, species assumed)": "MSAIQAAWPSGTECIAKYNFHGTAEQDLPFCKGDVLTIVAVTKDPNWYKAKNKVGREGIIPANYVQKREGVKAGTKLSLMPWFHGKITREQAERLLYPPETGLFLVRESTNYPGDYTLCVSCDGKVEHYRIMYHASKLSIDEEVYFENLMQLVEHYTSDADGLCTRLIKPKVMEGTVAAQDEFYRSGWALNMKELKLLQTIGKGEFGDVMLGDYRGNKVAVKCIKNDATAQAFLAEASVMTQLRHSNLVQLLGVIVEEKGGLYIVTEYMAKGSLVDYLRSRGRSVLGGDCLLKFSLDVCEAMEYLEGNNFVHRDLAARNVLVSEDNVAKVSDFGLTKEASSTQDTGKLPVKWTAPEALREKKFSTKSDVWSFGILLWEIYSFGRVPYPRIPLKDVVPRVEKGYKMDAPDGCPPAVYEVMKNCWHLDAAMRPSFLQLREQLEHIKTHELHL", "experiment": "NanoSyn single-concentration kinase inhibition", "assay_type": "biochemical", "details": "read-out: % inhibition at 100 nM, Csk"}, "Abl2/Arg": {"target": "Abl2/Arg (Homo sapiens (Human), UniProt P42684)", "sequence (P42684 whole entry)": "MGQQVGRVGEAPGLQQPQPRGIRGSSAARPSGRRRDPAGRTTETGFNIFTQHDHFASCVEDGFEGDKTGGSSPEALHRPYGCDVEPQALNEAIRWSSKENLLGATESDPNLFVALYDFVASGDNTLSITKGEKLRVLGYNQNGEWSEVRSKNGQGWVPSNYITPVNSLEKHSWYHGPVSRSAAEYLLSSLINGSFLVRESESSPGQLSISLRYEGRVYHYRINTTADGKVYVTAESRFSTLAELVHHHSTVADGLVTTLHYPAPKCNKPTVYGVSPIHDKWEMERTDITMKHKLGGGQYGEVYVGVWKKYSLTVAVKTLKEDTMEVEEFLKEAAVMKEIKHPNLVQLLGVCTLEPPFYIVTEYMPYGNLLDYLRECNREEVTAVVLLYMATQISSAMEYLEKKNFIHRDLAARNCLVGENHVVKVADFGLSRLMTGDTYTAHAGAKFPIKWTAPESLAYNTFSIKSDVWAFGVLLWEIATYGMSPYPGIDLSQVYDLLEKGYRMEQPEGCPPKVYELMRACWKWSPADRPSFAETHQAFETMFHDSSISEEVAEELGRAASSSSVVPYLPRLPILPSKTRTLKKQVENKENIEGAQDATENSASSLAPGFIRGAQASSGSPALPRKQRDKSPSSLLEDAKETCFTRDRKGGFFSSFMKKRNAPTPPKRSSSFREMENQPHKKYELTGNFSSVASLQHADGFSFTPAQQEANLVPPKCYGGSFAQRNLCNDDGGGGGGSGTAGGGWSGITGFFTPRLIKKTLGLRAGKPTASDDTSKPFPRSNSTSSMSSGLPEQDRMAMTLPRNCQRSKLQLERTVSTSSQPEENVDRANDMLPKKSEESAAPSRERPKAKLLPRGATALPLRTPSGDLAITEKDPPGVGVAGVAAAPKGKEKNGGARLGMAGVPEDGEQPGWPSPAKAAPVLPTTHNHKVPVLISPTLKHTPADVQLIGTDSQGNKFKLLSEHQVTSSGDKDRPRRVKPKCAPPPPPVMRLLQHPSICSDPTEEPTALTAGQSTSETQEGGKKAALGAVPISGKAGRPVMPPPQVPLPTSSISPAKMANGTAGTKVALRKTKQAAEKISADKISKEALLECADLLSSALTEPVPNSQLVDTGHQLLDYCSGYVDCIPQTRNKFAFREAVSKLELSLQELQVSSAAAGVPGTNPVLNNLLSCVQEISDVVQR", "experiment": "NanoSyn single-concentration kinase inhibition", "assay_type": "biochemical", "details": "read-out: % inhibition at 100 nM, Abl2/Arg"}, "FGFR1": {"target": "FGFR1 (Homo sapiens (Human), UniProt P11362)", "sequence (P11362 22-822, species assumed)": "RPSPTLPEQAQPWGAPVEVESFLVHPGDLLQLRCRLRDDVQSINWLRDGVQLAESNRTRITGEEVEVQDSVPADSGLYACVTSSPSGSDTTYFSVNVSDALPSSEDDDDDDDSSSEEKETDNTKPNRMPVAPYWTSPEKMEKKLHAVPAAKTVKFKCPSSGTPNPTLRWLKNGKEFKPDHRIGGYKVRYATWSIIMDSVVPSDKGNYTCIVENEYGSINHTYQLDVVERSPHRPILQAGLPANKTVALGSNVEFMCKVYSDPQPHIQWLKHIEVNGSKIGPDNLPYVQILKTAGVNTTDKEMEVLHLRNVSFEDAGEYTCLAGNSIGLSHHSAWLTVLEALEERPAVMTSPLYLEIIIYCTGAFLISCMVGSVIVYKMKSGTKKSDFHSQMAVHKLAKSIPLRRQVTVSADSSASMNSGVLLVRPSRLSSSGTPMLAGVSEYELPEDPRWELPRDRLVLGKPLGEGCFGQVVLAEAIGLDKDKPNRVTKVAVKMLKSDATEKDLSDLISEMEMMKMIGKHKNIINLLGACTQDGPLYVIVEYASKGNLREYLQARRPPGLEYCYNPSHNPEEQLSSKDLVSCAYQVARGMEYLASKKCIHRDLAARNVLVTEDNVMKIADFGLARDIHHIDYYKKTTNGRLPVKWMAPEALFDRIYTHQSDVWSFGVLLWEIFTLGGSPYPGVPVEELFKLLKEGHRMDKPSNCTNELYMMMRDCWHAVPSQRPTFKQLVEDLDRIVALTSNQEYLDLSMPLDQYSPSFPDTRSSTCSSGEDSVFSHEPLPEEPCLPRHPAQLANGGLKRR", "experiment": "NanoSyn single-concentration kinase inhibition", "assay_type": "biochemical", "details": "read-out: % inhibition at 100 nM, FGFR1"}, "EPH-A3": {"target": "EPH-A3 (Homo sapiens (Human), UniProt P29320)", "experiment": "NanoSyn single-concentration kinase inhibition", "assay_type": "biochemical", "details": "read-out: % inhibition at 100 nM, EPH-A3"}, "VEGFR2 (KDR) [4]": {"target": "T1, VEGFR2 (KDR)", "experiment": "biochemical", "details": "read-out: % inhibition at 100 nM, VEGFR2 (KDR), 100 nM"}, "BV-173": {"tested_on": "BV-173", "experiment": "Growth inhibition (GI50) in BV-173 CML cells", "assay_type": "cell-based", "details": "Homo sapiens, BV-173, read-out: GI50, BV-173"}, "VEGFR1 (FLT1)": {"target": "VEGFR1 (FLT1) (Homo sapiens (Human), UniProt P17948)", "sequence (P17948 27-1338, species assumed)": "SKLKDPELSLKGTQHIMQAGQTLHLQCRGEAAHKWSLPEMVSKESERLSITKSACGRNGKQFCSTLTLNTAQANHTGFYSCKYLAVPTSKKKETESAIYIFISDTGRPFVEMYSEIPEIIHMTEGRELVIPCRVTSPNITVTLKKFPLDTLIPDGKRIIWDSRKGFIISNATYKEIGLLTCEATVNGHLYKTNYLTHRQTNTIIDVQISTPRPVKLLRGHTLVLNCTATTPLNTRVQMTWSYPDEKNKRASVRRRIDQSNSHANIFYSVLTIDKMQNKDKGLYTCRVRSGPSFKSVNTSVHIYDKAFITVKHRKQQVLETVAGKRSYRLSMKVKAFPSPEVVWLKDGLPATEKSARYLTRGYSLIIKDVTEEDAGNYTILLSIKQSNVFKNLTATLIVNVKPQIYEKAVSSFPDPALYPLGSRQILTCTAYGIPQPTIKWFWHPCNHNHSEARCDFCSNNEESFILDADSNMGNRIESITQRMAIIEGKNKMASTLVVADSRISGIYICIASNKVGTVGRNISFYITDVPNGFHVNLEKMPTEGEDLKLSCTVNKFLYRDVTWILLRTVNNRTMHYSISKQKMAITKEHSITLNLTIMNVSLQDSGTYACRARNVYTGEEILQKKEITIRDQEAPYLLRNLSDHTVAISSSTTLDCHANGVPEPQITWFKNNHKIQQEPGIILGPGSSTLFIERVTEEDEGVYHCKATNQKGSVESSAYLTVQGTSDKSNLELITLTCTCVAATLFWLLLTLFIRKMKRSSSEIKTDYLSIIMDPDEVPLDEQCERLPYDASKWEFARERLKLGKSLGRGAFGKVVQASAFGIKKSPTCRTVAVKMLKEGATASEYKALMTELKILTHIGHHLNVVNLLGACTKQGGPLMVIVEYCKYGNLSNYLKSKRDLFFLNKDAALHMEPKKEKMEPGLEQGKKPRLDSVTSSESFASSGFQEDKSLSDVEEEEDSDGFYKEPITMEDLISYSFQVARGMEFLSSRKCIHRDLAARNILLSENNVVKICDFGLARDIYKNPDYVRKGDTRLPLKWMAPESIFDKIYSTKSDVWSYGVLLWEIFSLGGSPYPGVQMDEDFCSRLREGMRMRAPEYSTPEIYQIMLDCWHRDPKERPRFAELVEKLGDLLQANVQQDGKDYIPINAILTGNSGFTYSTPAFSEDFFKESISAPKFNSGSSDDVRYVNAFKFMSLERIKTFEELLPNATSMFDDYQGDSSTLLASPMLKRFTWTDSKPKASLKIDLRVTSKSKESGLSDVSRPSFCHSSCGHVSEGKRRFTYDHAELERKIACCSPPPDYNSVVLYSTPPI", "experiment": "NanoSyn single-concentration kinase inhibition", "assay_type": "biochemical"}, "K562": {"tested_on": "K562", "experiment": "Growth inhibition (GI50) in K562 CML cells", "assay_type": "cell-based", "details": "Homo sapiens, K562, read-out: GI50, K562"}, "FGFR3": {"target": "FGFR3 (Homo sapiens (Human), UniProt P22607)", "experiment": "NanoSyn single-concentration kinase inhibition", "assay_type": "biochemical", "details": "read-out: % inhibition at 100 nM, FGFR3"}, "[5]": {"tested_on": "chronic myelogenous leukemia", "details": "CML patients; about 30% prior to any targeted therapy; cited from earlier work"}},
  "data": [
    {"smiles": "CN1CCN(Cc2ccc(NC(=O)Nc3ccc(Oc4ccc5ncccc5c4)cc3)cc2C(F)(F)F)CC1", "note": "[Compound C05]", "values": [
      {"measurement": "GI50", "setting": "[1]", "result": 5.3, "unit": "µM"}
    ]},
    {"smiles": "CN1CCN(Cc2ccc(NC(=O)Nc3ccc(Oc4ccc5ncncc5c4)cc3)cc2C(F)(F)F)CC1", "note": "[Compound C03]", "values": [
      {"measurement": "GI50", "setting": "[1]", "result": 5.58, "unit": "µM"}
    ]},
    {"smiles": "Cc1ccc(C(=O)Nc2ccc(CN3CCN(C)CC3)c(C(F)(F)F)c2)cc1C#Cc1cnc2cccnn12", "note": "[ponatinib]", "values": [
      {"measurement": "patients with serious vascular AEs", "setting": "[2]; median follow-up of 2.7 years", "result": 48, "unit": "%"},
      {"measurement": "patients who developed arterial or venous thrombosis and occlusions", "setting": "[2]", "result": "Twenty-seven"},
      {"measurement": "patients with heart failure, including fatalities", "setting": "[2]", "result": 8, "unit": "%"},
      {"measurement": "inhibition at 0.1 µM", "setting": "VEGFR3 (FLT4)", "result": 100, "unit": "%"},
      {"measurement": "inhibition at 0.1 µM", "setting": "PDGFRα", "result": 98, "unit": "%"},
      {"measurement": "inhibition at 0.1 µM", "setting": "C-Raf", "result": 118, "unit": "%"},
      {"measurement": "inhibition at 0.1 µM", "setting": "FLT3", "result": 95, "unit": "%"},
      {"measurement": "inhibition at 0.1 µM", "setting": "Lck", "result": 99, "unit": "%"},
      {"measurement": "inhibition at 0.1 µM", "setting": "PDGFRβ", "result": 108, "unit": "%"},
      {"measurement": "inhibition at 0.1 µM", "setting": "MAP4K5", "result": 102, "unit": "%"},
      {"measurement": "inhibition at 0.1 µM", "setting": "Lyn-A", "result": 99, "unit": "%"},
      {"measurement": "% inhibition at 100 nM, VEGFR2 (KDR)", "setting": "VEGFR2 (KDR) [3]", "result": 102, "unit": "%"},
      {"measurement": "GI50", "setting": "BV-173R", "result": 0.015, "unit": "µM"},
      {"measurement": "inhibition at 0.1 µM", "setting": "Tie2", "result": 95, "unit": "%"},
      {"measurement": "inhibition at 0.1 µM", "setting": "Csk", "result": 100, "unit": "%"},
      {"measurement": "inhibition at 0.1 µM", "setting": "Abl2/Arg", "result": 99, "unit": "%"},
      {"measurement": "inhibition at 0.1 µM", "setting": "FGFR1", "result": 102, "unit": "%"},
      {"measurement": "inhibition at 0.1 µM", "setting": "EPH-A3", "result": 101, "unit": "%"},
      {"measurement": "inhibition at 0.1 µM", "setting": "VEGFR2 (KDR) [4]", "result": 100, "unit": "%"},
      {"measurement": "GI50", "setting": "BV-173", "result": 0.006, "unit": "µM"},
      {"measurement": "% inhibition at 100 nM, VEGFR1 (FLT1)", "setting": "VEGFR1 (FLT1); 100 nM", "result": 107, "unit": "%"},
      {"measurement": "inhibition at 0.1 µM", "setting": "VEGFR1 (FLT1); read-out: % inhibition at 100 nM, VEGFR1 (FLT1), 100 nM", "result": 100, "unit": "%"},
      {"measurement": "GI50", "setting": "K562", "result": 0.0025, "unit": "µM"},
      {"measurement": "inhibition at 0.1 µM", "setting": "FGFR3", "result": 91, "unit": "%"}
    ]},
    {"smiles": "CNC(=O)c1cc(Oc2ccc(NC(=O)Nc3ccc(CN4CCN(C)CC4)c(C(F)(F)F)c3)cc2)ccn1", "note": "[Compound C01]", "values": [
      {"measurement": "GI50", "setting": "[1]", "result": 4.84, "unit": "µM"}
    ]},
    {"smiles": "CN1CCN(Cc2ccc(NC(=O)Nc3ccc(Oc4ccc5cccnc5c4)cc3)cc2C(F)(F)F)CC1", "note": "[Compound C06]", "values": [
      {"measurement": "GI50", "setting": "[1]", "result": 5.22, "unit": "µM"}
    ]},
    {"smiles": "CN1CCN(Cc2ccc(NC(=O)Nc3ccc(Oc4ccncc4)cc3)cc2C(F)(F)F)CC1", "note": "[Compound C02]", "values": [
      {"measurement": "GI50", "setting": "[1]", "result": 5, "unit": "µM"}
    ]},
    {"smiles": "CN1CCN(Cc2ccc(NC(=O)Nc3ccc(Nc4ccc5ncccc5c4)cc3)cc2C(F)(F)F)CC1", "note": "[Compound C04]", "values": [
      {"measurement": "GI50", "setting": "[1]", "result": 5.12, "unit": "µM"}
    ]},
    {"smiles": "Cc1ccc(NC(=O)c2ccc(CN3CCN(C)CC3)cc2)cc1Nc1nccc(-c2cccnc2)n1", "note": "[imatinib]", "values": [
      {"measurement": "5-year overall survival rate", "setting": "[5]", "result": 90, "unit": "%"}
    ]}
  ]
}
